From patent US10100019B2
Structures can show the parent of a compound that is named as a salt. Where two headings read alike, the source gives them in different places.

Tests used:
H3122 cells = assay: Cytotoxicity in non-small cell lung cancer cell line H3122 (SRB); format: cell-based, human
Method: Particularly, 4,000 H3122 cells containing ALK enzyme were distributed in each well of a 96 well plate together with 100 μl of DMEM (Dulbecco's Modified Eagle's Medium). One day later, the compound of the present invention was added to each well at different concentrations of […]. DMSO (dimethylsulfoxide) was added to the well that was not loaded with the compound by the same amount as the compound. Three days after the addition of the compound, DMEM was eliminated. 10% TCA (trichloroacetic acid) was added to fix the cells. The wells were washed with running water three times and the live cells were stained with SRB solution (1 sulphorodamine B). Then, OD was measured to calculate the population of the live cells.

H2228 cells = assay: cells; conditions: Homo sapiens, NCI-H2228, 72 h
[1] = read-out: Cytotoxicity H2228 (GI50 μM), H2228 cells, three days, SRB
[2] = Homo sapiens, NCI-H3122, 72 h, H3122 cells, three days, SRB

Structure (SMILES)	GI50 (H2228 cells; [1])	GI50 (H3122 cells; [2])	further results
COc1ccc(C2(CN3CCCCC3)CCCC2)cc1Nc1ncc(Cl)c(Nc2ccccc2S(=O)(=O)C(C)C)n1 [Example 5]	7.8 µM		GI50 (H3122 cells; H3122 cells, three days, SRB): 10 µM
COc1ccc(C2(CN)CCCC2)cc1Nc1ncc(Cl)c(Nc2ccccc2S(=O)(=O)C(C)C)n1 [Example 1, N2-(5-(1-(aminomethyl)cyclopentyl)-2-methoxyphenyl)-5-chloro-N4-(2-(isopropylsulfonyl)phenyl)pyrimidine-2,4-diamine]	2.1 µM	3.06 µM	
COc1ccc(CCN)cc1Nc1ncc(Cl)c(Nc2c(F)cccc2S(=O)(=O)C(C)C)n1 [Example 34, N2-(5-(2-aminoethyl)-2-methoxyphenyl)-5-chloro-N4-(2-fluoro-6-(isopropylsulfonyl)phenyl)pyrimidine-2,4-diaminehydrochloride]	2.3 µM	2.2 µM	
COc1ccc(CCNS(C)(=O)=O)cc1Nc1ncc(Cl)c(Nc2ccccc2S(=O)(=O)C(C)C)n1 [Example 8, N-(3-(5-chloro-4-(2-(isopropylsulfonyl)phenylamino)pyrimidine-2-ylamino)-4-methoxyphenethyl) methanesulfonamide]	0.88 µM	1.9 µM	
COc1ccc(C2(CN)CCCCC2)cc1Nc1ncc(Cl)c(Nc2ccccc2S(=O)(=O)C(C)C)n1 [Example 2, N2-(5-(1-(aminomethyl)cyclohexyl)-2-methoxyphenyl)-5-chloro-N4-(2-(isopropylsulfonyl)phenyl)pyrimidine-2,4-diamine]	3.77 µM	2.63 µM	
CNCCc1ccc(OC)c(Nc2ncc(Cl)c(Nc3ccccc3S(=O)(=O)C(C)C)n2)c1 [Example 10, 5-chloro-N4-(2-(isopropylsulfonyl)phenyl)-N2-(2-methoxy-5-(2-(methylamino)ethyl)phenyl)pyrimidine-2,4-diamine]	1.8 µM	1.2 µM	
COc1ccc(C(C)(C)CN)cc1Nc1ncc(Cl)c(Nc2ccccc2S(=O)(=O)C(C)C)n1 [Example 35, N2-(5-(1-amino-2-methylpropane-2-yl)-2-methoxyphenyl)-5-chloro-N4-(2-(isopropylsulfonyl)phenyl)pyrimidine-2,4-diamine]	1.6 µM	1.6 µM	
COc1ccc(CCN2CCOCC2)cc1Nc1ncc(Cl)c(Nc2ccccc2S(=O)(=O)C(C)C)n1 [Example 22, 5-chloro-N4-(2-(isopropylsulfonyl)phenyl)-N2-(2-methoxy-5-(2-morpholinoethyl)phenyl)pyrimidine-2,4-diamine]	0.46 µM	0.27 µM	
COc1ccc(C2(CN3CCOCC3)CCCC2)cc1Nc1ncc(Cl)c(Nc2ccccc2S(=O)(=O)C(C)C)n1 [Example 6, 5-chloro-N4-(2-(isopropylsulfonyl)phenyl)-N2-(2-methoxy-5-(1-(morpholinomethyl)cyclopentyl)phenyl)pyrimidine-2,4-diamine]	10 µM		GI50 (H3122 cells; H3122 cells, three days, SRB): 10 µM
COc1ccc(CCNC(=O)Cc2ccccc2)cc1Nc1ncc(Cl)c(Nc2ccccc2S(=O)(=O)C(C)C)n1 [Example 12, N-(3-(5-chloro-4-(2-(isopropylsulfonyl)phenylamino)pyrimidine-2-ylamino)-4-methoxyphenethyl)-2-phenylacetamide]	1.1 µM	4.7 µM	
CCNC(=O)NCCc1ccc(OC)c(Nc2ncc(Cl)c(Nc3ccccc3S(=O)(=O)C(C)C)n2)c1 [Example 16, 1-(3-(5-chloro-4-(2-(isopropylsulfonyl)phenylamino)pyrimidine-2-ylamino)-4-methoxyphenethyl)-3-ethylurea]	0.52 µM	0.41 µM	
COc1ccc(CCN2CCCCC2)cc1Nc1ncc(Cl)c(Nc2ccccc2S(=O)(=O)C(C)C)n1 [Example 21, 5-chloro-N4-(2-(isopropylsulfonyl)phenyl)-N2-(2-methoxy-5-(2-(piperidine-1-yl)ethyl)phenyl)pyrimidine-2,4-diamine]			GI50 (H3122 cells): 0.06 µM; GI50 (H3122 cells; Homo sapiens, NCI-H3122, 72 h): ≤ 0.1 µM; GI50 (H2228 cells; read-out: Cytotoxicity H2228 (GI50 μM)): 0.08 µM
COc1ccc(CCN)cc1Nc1ncc(Cl)c(Nc2ccc(F)cc2S(=O)(=O)C(C)C)n1 [Example 32, N2-(5-(2-aminoethyl)-2-methoxyphenyl)-5-chloro-N4-(4-fluoro-2-(isopropylsulfonyl)phenyl)pyrimidine-2,4-diamine]	0.64 µM	0.71 µM	
CCNC(=S)NCCc1ccc(OC)c(Nc2ncc(Cl)c(Nc3ccccc3S(=O)(=O)C(C)C)n2)c1 [Example 23, 1-(3-(5-chloro-4-(2-(isopropylsulfonyl)phenylamino)pyrimidine-2-ylamino)-4-methoxyphenethyl)-3-ethylthiourea]	2.5 µM	1.4 µM	
CCNCCc1ccc(OC)c(Nc2ncc(Cl)c(Nc3ccccc3S(=O)(=O)C(C)C)n2)c1 [Example 13, 5-chloro-N2-(5-(2-(ethylamino)ethyl)-2-methoxyphenyl)-N4-(2-(isopropylsulfonyl)phenyl)pyrimidine-2,4-diamine]	0.87 µM	0.99 µM	
COc1ccc(CCN)cc1Nc1ncc(Cl)c(Nc2cc(F)ccc2S(=O)(=O)C(C)C)n1 [Example 33, N2-(5-(2-aminoethyl)-2-methoxyphenyl)-5-chloro-N4-(5-fluoro-2-(isopropylsulfonyl)phenyl)pyrimidine-2,4-diaminehydrochloride]	10 µM		GI50 (H3122 cells; H3122 cells, three days, SRB): 10 µM
COc1ccc(CCNCC(=O)O)cc1Nc1ncc(Cl)c(Nc2ccccc2S(=O)(=O)C(C)C)n1 [Example 27, 2-(3-(5-chloro-4-(2-(isopropylsulfonyl)phenylamino)pyrimidine-2-ylamino)-4-methoxyphenethylamino)acetic acid]	0.51 µM	0.42 µM	
COc1ccc(C(C)(C)CN)cc1Nc1ncc(Cl)c(Nc2cc(F)ccc2S(=O)(=O)C(C)C)n1 [Example 37, N2-(5-(1-amino-2-methylpropane-2-yl)-2-methoxyphenyl)-5-chloro-N4-(5-fluoro-2-(isopropylsulfonyl)phenyl)pyrimidine-2,4-diamine]	10 µM		GI50 (H3122 cells; H3122 cells, three days, SRB): 10 µM
COC(=O)CNCCc1ccc(OC)c(Nc2ncc(Cl)c(Nc3ccccc3S(=O)(=O)C(C)C)n2)c1 [Example 26, methyl 2-(3-(5-chloro-4-(2-(isopropylsulfonyl)phenylamino)pyrimidine-2-ylamino)-4-methoxyphenethylamino)acetate]	0.42 µM	0.14 µM	
COc1ccc(CCNC(C)C)cc1Nc1ncc(Cl)c(Nc2ccccc2S(=O)(=O)C(C)C)n1 [Example 15, 5-chloro-N2-(5-(2-(isopropylamino)ethyl)-2-methoxyphenyl)-N4-(2-(isopropylsulfonyl)phenyl)pyrimidine-2,4-diamine]	0.78 µM	1.1 µM	
COc1ccc(CNC(=O)C(F)(F)F)cc1Nc1ncc(Cl)c(Nc2ccccc2S(=O)(=O)C(C)C)n1 [Example 28, N-(3-((5-chloro-4-((2-(isopropylsulfonyl)phenyl)amino)pyrimidine-2-yl)amino)-4-methoxybenzyl)-2,2,2-trifluoroacetamide]	0.98 µM	0.82 µM	
COc1ccc(CCNc2ncccn2)cc1Nc1ncc(Cl)c(Nc2ccccc2S(=O)(=O)C(C)C)n1 [Example 25, 5-chloro-N4-(2-(isopropylsulfonyl)phenyl)-N2-(2-methoxy-5-(2-(pyrimidine-2-ylamino)ethyl)phenyl)pyrimidine-2,4-diamine]	1.5 µM	1.3 µM	
COc1ccc(CCNC(=S)NCc2ccccc2)cc1Nc1ncc(Cl)c(Nc2ccccc2S(=O)(=O)C(C)C)n1 [Example 20, 1-benzyl-3-(3-(5-chloro-4-(2-(isopropylsulfonyl)phenylamino)pyrimidine-2-ylamino)-4-methoxyphenethyl)thiourea]	0.42 µM	0.31 µM	
COc1ccc(CCNC(=O)NC2CCCCC2)cc1Nc1ncc(Cl)c(Nc2ccccc2S(=O)(=O)C(C)C)n1 [Example 17, 1-(3-(5-chloro-4-(2-(isopropylsulfonyl)phenylamino)pyrimidine-2-ylamino)-4-methoxyphenethyl)-3-cyclohexylurea]	2.3 µM	0.88 µM	
COc1ccc(CCNC(=O)C(F)(F)F)cc1Nc1ncc(Cl)c(Nc2ccccc2S(=O)(=O)C(C)C)n1 [Example 30, N-(3-(5-chloro-4-(2-(isopropylsulfonyl)phenylamino)pyrimidine-2-ylamino)-4-methoxyphenethyl)-2,2,2-trifluoroacetamide]	0.76 µM	0.48 µM	
COc1ccc(C(C)(C)CN)cc1Nc1ncc(Cl)c(Nc2ccc(F)cc2S(=O)(=O)C(C)C)n1 [Example 36, N2-(5-(1-amino-2-methylpropane-2-yl)-2-methoxyphenyl)-5-chloro-N4-(4-fluoro-2-(isopropylsulfonyl)phenyl)pyrimidine-2,4-diamine]	10 µM		GI50 (H3122 cells; H3122 cells, three days, SRB): 10 µM
COc1ccc(C(C)(C)CN)cc1Nc1ncc(Cl)c(Nc2c(F)cccc2S(=O)(=O)C(C)C)n1 [Example 38, N2-(5-(1-amino-2-methylpropane-2-yl)-2-methoxyphenyl)-5-chloro-N4-(2-fluoro-6-(isopropylsulfonyl)phenyl)pyrimidine-2,4-diamine]	10 µM		GI50 (H3122 cells; H3122 cells, three days, SRB): 10 µM
COc1ccc(CC2(N)CC2)cc1Nc1ncc(Cl)c(Nc2ccccc2S(=O)(=O)C(C)C)n1 [Example 3, N2-(5-((1-aminocyclopropyl)methyl)-2-methoxyphenyl)-5-chloro-N4-(2-(isopropylsulfonyl)phenyl)pyrimidine-2,4-diamine]	1.21 µM	0.77 µM	
